1 substance from US7745576B2, “Polypeptides having antimicrobial activity and polynucleotides encoding same” (Novozymes Adenium Biotech A/S, priority 2005, dated 2010) can be followed below.

Holding throughout (format): cell-based
The test system of experiment [1] is Acinetobacter iwoffii ATCC 15309. Kind of experiment: MIC, NCCLS/CLSI M7-A6 dilution susceptibility test. The note with it: average of two independent evaluations. The method, then:
(§1) The antimicrobial peptide shown as amino acids 1 to 21 of SEQ ID NO: 2 was prepared synthetically. The Minimal Inhibitory Concentration (MIC) was determined to test for the antimicrobial activity of Arenicin following the NCCLS guidelines from CLSI (Clinical and Laboratory Standards Institute; formerly known as National Committee for Clinical and Laboratory Standards)—protocol M7-A6, Vol. 20, No. 2: Methods for Dilution Antimicrobial Susceptibility Tests for Bacteria That Grow Aerobically.
(§2) The antimicrobial peptide of the invention was tested against 12 bacterial strains obtained from the American Type Culture Collection (ATCC). The results in Table 1 are average values of two independent evaluations.

The subject of experiment [2] is Enterobacter cloacae ATCC 13047. Kind of experiment: MIC, NCCLS/CLSI M7-A6 dilution susceptibility test. Conditions: average of two independent evaluations. The protocol:
as §1, §2

Experiment [3] has as its system Citrobacter freundii ATCC 8090. Nature of the experiment: MIC, NCCLS/CLSI M7-A6 dilution susceptibility test. The note with it: average of two independent evaluations. The method, then: as §1, §2
Experiment [4] has as its system Aeromonas salmonicida ATCC 14174. Kind of experiment: MIC, NCCLS/CLSI M7-A6 dilution susceptibility test. Conditions: average of two independent evaluations. The method, then: as §1, §2
The test system of experiment [5] is Stenotrophomonas maltophlila ATCC 13637. Kind of experiment: MIC, NCCLS/CLSI M7-A6 dilution susceptibility test. The note with it: average of two independent evaluations. The protocol: as §1, §2
Experiment [6] relates to Escherichia coli ATCC 25404. Nature of the experiment: MIC, NCCLS/CLSI M7-A6 dilution susceptibility test. The note with it: average of two independent evaluations. The method, then: as §1, §2
For experiment [7], the system named is Pseudomonas aeruginosa ATCC 9027. Kind of experiment: MIC, NCCLS/CLSI M7-A6 dilution susceptibility test. Conditions: average of two independent evaluations. The protocol: as §1, §2
Experiment [8] relates to Pseudomonas aeruginosa ATCC 27853. Nature of the experiment: MIC, NCCLS/CLSI M7-A6 dilution susceptibility test. Conditions: average of two independent evaluations. The protocol:
as §1, §2

In experiment [9] the test system is Enterobacter aerogenes ATCC 13048. Kind of experiment: MIC, NCCLS/CLSI M7-A6 dilution susceptibility test. The note with it: average of two independent evaluations. The protocol: as §1, §2
Experiment [10] deals with Moraxella catarrhalis ATCC 25238. Nature of the experiment: MIC, NCCLS/CLSI M7-A6 dilution susceptibility test. Conditions: average of two independent evaluations. The protocol: as §1, §2
Experiment [11] has as its system Escherichia coli ATCC 25922. Nature of the experiment: MIC, NCCLS/CLSI M7-A6 dilution susceptibility test. The note with it: average of two independent evaluations. The method, then:
as §1, §2

Experiment [12] concerns Shigella sonnei ATCC 11060. Kind of experiment: MIC, NCCLS/CLSI M7-A6 dilution susceptibility test. The note with it: average of two independent evaluations. The method, then:
as §1, §2

The subject of experiment [13] is Candida glabrata DSM 11226. Kind of experiment: MIC against clinical fungi, PD broth dilution. Conditions: 30° C., approximately 40 hours. The method, then:
(§3) Minimal inhibitory concentrations of Arenicin against yeasts and fungi were determined essentially as described by NCCLS/CLSI (clinical and laboratory standards institute).
(§4) In summary, fungal or yeasts suspension of approximately 1 McFarland unit was diluted 1:100 in PD broth (8 g/L potato dextrose) and growth was assayed against serial 2-fold dilutions of Arenicin (0.03-32 micrograms/mL). Assay plates were incubated at 25-27° C. for Candida albicans, Candida tropicalis, Cryptococcus neoformans, Trichophyton mentagrophytes and Epidermophyton floccosum, and at 30° C. for Candida glabrata, Pichia pastoris, Saccharomyces cerevisiae and Aspergillus niger. Growth was recorded visually (naked eye, oblique illumination) after approximately 40 hours of incubation.
For orientation: In broth dilution the organism is exposed to a series of concentrations in liquid medium.

For experiment [14], the system named is Cryptococcus neoformans DSM 11959. Nature of the experiment: MIC against clinical fungi, PD broth dilution. Conditions: 25-27° C., approximately 40 hours. The method, then:
as §3, §4

For experiment [15], the system named is Saccharomyces cerevisiae DSM 1333. Nature of the experiment: MIC against clinical fungi, PD broth dilution. Conditions: 30° C., approximately 40 hours. The protocol: as §3, §4
Experiment [16] deals with Candida albicans ATCC 28517. Nature of the experiment: MIC against clinical fungi, PD broth dilution. Conditions: 25-27° C., approximately 40 hours. The method, then: as §3, §4
For experiment [17], the system named is Candida tropicalis DSM 11953. Kind of experiment: MIC against clinical fungi, PD broth dilution. The note with it: 25-27° C., approximately 40 hours. The protocol:
as §3, §4

Experiment [18] concerns Candida albicans ATCC 10231. Nature of the experiment: MIC against clinical fungi, PD broth dilution. The note with it: 25-27° C., approximately 40 hours. The protocol: as §3, §4
Experiment [19] deals with Candida albicans ATCC 18804. Kind of experiment: MIC against clinical fungi, PD broth dilution. The note with it: 25-27° C., approximately 40 hours. The method, then: as §3, §4
Experiment [20] concerns Pichia pastoris ATCC 201178. Kind of experiment: MIC against clinical fungi, PD broth dilution. The note with it: 30° C., approximately 40 hours. The protocol:
as §3, §4

Experiment [21] relates to Aspergillus niger ATCC9642. Kind of experiment: MIC against clinical fungi, PD broth dilution. Conditions: 30° C., approximately 40 hours. The method, then: as §3, §4
Experiment [22] concerns Trichophyton mentagrophytes DSM 4870. Kind of experiment: MIC against clinical fungi, PD broth dilution. The note with it: 25-27° C., approximately 40 hours. The method, then: as §3, §4
The test system of experiment [23] is Pichia pastoris ATCC 20864. Kind of experiment: MIC against clinical fungi, PD broth dilution. Conditions: 30° C., approximately 40 hours. The protocol:
as §3, §4

In the case of “Arenicin: antimicrobial polypeptide shown as amino acids 1 to 21 of SEQ ID NO: 2 (Arenicola marina), prepared synthetically (MGYSMNIALVYATVLIGVLHV; listed as Arenicola marina)”, the MIC was determined as 0.25 microgram/mL in experiment [1]; 1 microgram/mL in experiment [2]; 1 microgram/mL in [3]; 2 micrograms/mL in experiment [4]; 1 microgram/mL in experiment [5]; 0.5 microgram/mL in experiment [6]. In addition, the MIC in experiment [7] is on record as 1 microgram/mL; in experiment [8], 0.5 microgram/mL; in experiment [9], 1 microgram/mL; in experiment [10], under 0.06 microgram/mL; in [11], 0.25 microgram/mL; in experiment [12], 0.5 microgram/mL. Also, the MIC in experiment [13] is given as 16 micrograms/mL; in experiment [14], 1 microgram/mL; in experiment [15], 8 micrograms/mL; in [16] it was 8 micrograms/mL; in experiment [17], 2 micrograms/mL; in experiment [18], 4 micrograms/mL. Moreover, the MIC in [19] is 8 micrograms/mL; in experiment [20], 4 micrograms/mL; in experiment [21], 8 micrograms/mL; in experiment [22], 8 micrograms/mL; in experiment [23] it was 2 micrograms/mL.
